From publication PMC7830597, “Derivatives of Tenuazonic Acid as Potential New Multi-Target Anti-Alzheimer’s Disease Agents” (Biomolecules, 2021)
“Also recorded” adds a separate entry of the source. Like-named read-outs stand apart in the source and are kept apart here.

What was measured:
[1] = design: method as in literature; conditions: value reported in the literature; ref literature; cited from earlier work
[2] = design: method as in PMID 30158491; conditions: DPPH assay; cited from earlier work
[3] = biological target: AChE of electroforus electricus (electric eel) (Electrophorus electricus, UniProt O42275); experiment: biochemical; conditions: mean of three independent experiments ± SEM
Procedure: All new racemic compounds were tested as acetylcholinesterase inhibitors via an in vitro assay, following a modification of Ellman’s method in three independent experiments, using tacrine as a reference compound. […] Enzyme inhibition assays were performed using an adaptation of Ellman’s method. The readings were made in a spectrophotometer Perkin-Elmer Lambda 35 UV-Vis. Enzyme activity is measured by following the increase in yellow color produced from thiocholine when it reacts with dithiobisnitrobenzoate ion (DTNB). DTNB solution was obtained dissolving the reagent in HEPES buffer with salts, namely NaCl (50 mM) and MgCl2 (20 mM), obtaining a 3 mM solution. The enzyme AChE of electroforus electricus (electric eel) stock (500 U) was dissolved in TRIS 50 mM, pH 8.0, being posteriorly diluted to assay concentrations (5 U), obtaining an aliquot of 1 mL. The enzyme substrate used was acetylthiocholine iodide (AThCh, 16 mM), which was prepared with deionized water. The compounds tested were diluted in MeOH or DMSO (1 mg/mL, 2–7 × 10^−3 M), with further dilution, and five different concentrations were used for each compound, obtaining different percentages of AChE inhibition. The assay consists in the addition of HEPES (50 mM, pH = 8), inhibitor, AChE and MeOH in a 1 mL cuvette. The mixture was left to incubate for 15 min and, after that, AThCh and DTNB were added. The enzymatic reaction was followed through the measurements of absorbencies at 405 nm (Perkin Elmer Lambda 35 spectrophotometer equipped with a temperature programmer PTP 1þ1 Peltier System, using thermostated (T = 25.0 ± 0.1 °C) 1 cm path length cells) during 5 min. A blank solution containing all the components except the enzyme, that was substituted for equal volume of HEPES, was used. A control reaction was used using MeOH instead of the new compounds and was considered the reaction corresponding to 100% enzymatic activity. Each assay was performed in quintupled.

[4] = biological target: T1, Aβ1-42 (Homo sapiens, UniProt P05067); experiment: biochemical; conditions: for inhibition at 40 µM: read-out: Inhib. Aβ Aggreg. Self-Induced; for Inhib. Aβ Aggreg. Self-Induced: 40 µM
T1 construct: Amyloid β peptide (Aβ1-42) was purchased from GeneCust as a lyophilised powder; purchased GeneCust
Procedure: The anti-amyloidogenic activity of all the compounds was also evaluated in vitro, in the absence and in presence of Cu(II), by measuring the fluorescence emission of Thioflavin T (ThT).
The spectrofluorimetric method, based on the fluorescence emission of thioflavin T (ThT), was used to study the Aβ1-42 aggregation inhibition. Firstly, Aβ1-42 was dissolved in HFIP (1,1,1,3,3,3-Hexafluoro-2-propanol) and kept overnight at room temperature in order to obtain a dry film. […] The ligand solutions were prepared with MeOH (1mg/mL) and further with phosphate buffer. […] As a control, a solution of 30 μL of phosphate buffer and 30 μL of Aβ1-42 was used to observe the aggregation without any inhibition, while the ligand assay solutions were composed of 20 μL of phosphate buffer, 30 μL of Aβ1-42 and 10 μL of ligand. The Cu-induced aggregation studies were similarly conducted, adding 10 μL of CuCl2 to induce the fibril aggregation. Each experiment was composed of an assay and a blank sample, where the blank sample lacks Aβ1-42, to monitor the effect of the compounds on the fluorescence emission. The samples were left to incubate in a CERTOMAT WR water bath for 24 h at 37 °C with shaking. After 24 h, a Glycine-NaOH buffer (pH = 8.5) containing ThT were added to each sample in a microplate. The fluorescence signal was monitored at 446 nm (λexc) and 486 nm (λem) with a Varian Cary Eclipse fluorimeter. Amyloid β peptide (Aβ1-42) was purchased from GeneCust as a lyophilised powder and stored at −20 °C [12, 13, 14].

[5] = biological target: T1, Aβ1-42; design: method as in PMID 30158491; conditions: Cinhibitor = 100 µM; cited from earlier work
[6] = biological target: T1, Aβ1-42; experiment: Inhibition of Cu2+-induced Aβ1-42 aggregation, thioflavin T fluorescence; format: biochemical; conditions: inhibitor 40 µM, copper 40 µM
Procedure: The anti-amyloidogenic activity of all the compounds was also evaluated in vitro, in the absence and in presence of Cu(II), by measuring the fluorescence emission of Thioflavin T (ThT). […] The Aβ self-aggregation inhibitory activity shown by all compounds is higher than that of parent compound TA, with the exception of compound 2 (probably due to solubility issues at the experimental conditions of the assays). The fact that the reference value previously reported by us for TA (50 ± 8%) was obtained for quite different conditions, including a much higher inhibitor concentration (100 μM instead of 40 μM) is noteworthy. […] This may be due to different electronic contributions between the ketone and the ester functions. Therefore, the ester derivatives seem to be better chelators compared to TA.
The spectrofluorimetric method, based on the fluorescence emission of thioflavin T (ThT), was used to study the Aβ1-42 aggregation inhibition. Firstly, Aβ1-42 was dissolved in HFIP (1,1,1,3,3,3-Hexafluoro-2-propanol) and kept overnight at room temperature in order to obtain a dry film. Then, the film was re-dissolved in CH3CN-Na2CO3 (300μM)/NaOH (250μM) (48.3/48.3/3.4 mL v/v/v) and then phosphate buffer (pH = 8) was added. The ligand solutions were prepared with MeOH (1mg/mL) and further with phosphate buffer. For the inhibition studies of copper-induced Aβ aggregation, a solution of CuCl2 240 μM was used. As a control, a solution of 30 μL of phosphate buffer and 30 μL of Aβ1-42 was used to observe the aggregation without any inhibition, while the ligand assay solutions were composed of 20 μL of phosphate buffer, 30 μL of Aβ1-42 and 10 μL of ligand. The Cu-induced aggregation studies were similarly conducted, adding 10 μL of CuCl2 to induce the fibril aggregation. Each experiment was composed of an assay and a blank sample, where the blank sample lacks Aβ1-42, to monitor the effect of the compounds on the fluorescence emission. The samples were left to incubate in a CERTOMAT WR water bath for 24 h at 37 °C with shaking. After 24 h, a Glycine-NaOH buffer (pH = 8.5) containing ThT were added to each sample in a microplate. The fluorescence signal was monitored at 446 nm (λexc) and 486 nm (λem) with a Varian Cary Eclipse fluorimeter. Amyloid β peptide (Aβ1-42) was purchased from GeneCust as a lyophilised powder and stored at −20 °C [12, 13, 14].

[7] = Radical scavenging activity, DPPH method; conditions: DPPH assay; mean ± SEM of 3 independent experiments
Procedure: Therefore, they were assayed for radical scavenging activity using the DPPH method.
The final volume of the assay was 3.5 mL, corrected with MeOH to obtain different concentrations of our compound in each assay. The control solution was composed of MeOH and DPPH [14]. After 30 min, at RT, protected from light, the absorbance was measured at 517 nm (Perkin Elmer Lambda 35 spectrophotometer equipped with a temperature programmer PTP 1þ1 Peltier System, using thermostated (T¼25.0 ± 0.1 °C) 1 cm path length cells), against a blank solution (MeOH). The assays were performed in triplicate, in which the EC50 was obtained through the graphical representation of the %AA vs. the inhibitor concentration.

[8] = tested on: SH-SY5Y human neuroblastoma cells; experiment: Neuroprotection against Aβ1-42-induced toxicity, MTT; format: cell-based; conditions: Aβ1-42 2.5 μM 24 h; 1 h pre-incubation; compounds 1, 2 100 µM; 4 10 µM; 5 20 µM
Procedure: (§1) SH-SY5Y human neuroblastoma cells (ATCC-CRL-2266) were seeded in DMEM/F12 (Dulbecco’s Modified Eagle Medium/Ham’s F-12 Nutrient Mixture; Thermo Fisher Scientific) with 10% heat inactivated fetal bovine serum, 50 U/mL penicillin and 50 U/mL streptomycin under a humidified atmosphere with 95% relative humidity at 37 °C at a 0.16 × 10^6 cells/mL density. Stock solutions from tested compounds (1, 2, 4 and 5) were prepared in DMSO at a 25 mM concentration and stored at −20 °C until needed. In order to select the highest non-toxic concentration, a dose-response screening was performed, where SH-SY5Y cells were exposed to the compounds for 25 h. The selected concentrations for each compound were: 75 µM final concentration for 1 and 2; 10 µM final concentration for 4 and 20 µM final concentration for 5. […] For the neuroprotection assays, the selected compounds were added to the cell media 1 hour prior to the incubation with Aβ1-42 or L-ascorbic acid/ferrous sulphate. Aβ1-42 or L-ascorbic acid/ferrous sulphate treatment was maintained for another 24 h. Aβ1-42 was prepared as 276.9 µM stock in sterile water and administrated in the medium at a 2.5 µM final concentration. Ferrous sulphate was freshly prepared as 0.36 M stock in water and added to the medium at 2.5 mM final concentration. L-ascorbic acid was freshly prepared as 80 mM stock in water and added to the medium at 5 mM final concentration. Aβ1-42 was purchased from Bachem (Torrance, CA, USA) and ferrous sulphate and L-ascorbic acid from Sigma Chemical Co (St. Louis, MO, USA).
(§2) Cell viability was measured by using the MTT (3-(4,5-dimethylthiazol-2-yl)-2,5-diphenyl tetrazolium bromide) reduction assay. This test is based on the presence of succinate dehydrogenase enzyme in viable cells, that allows them to metabolize MTT into a formazan. After treatment, the medium was removed, and cells were washed with 1x PBS one time to remove dead cells. 200 µL of MTT solution (0.5 mg/mL) was added to each well and incubated for 2 h protected from light. Formazan precipitates were then dissolved in DMSO and absorbance measured at 570 nm. The ability to reduce MTT was expressed as a percentage of untreated control cells.
Overnight cultures were treated with Aβ1-42 peptide (2.5 μM) for 24 h in the absence or in the presence of the compounds. When compounds were present, a pre-incubation of 1 h preceded the Aβ1-42 treatment. Cellular viability was determined by employing the MTT reduction assay. […] (compounds: 1, 2–100 µM; 4–10 µM; 5–20 µM).

[9] = tested on: SH-SY5Y human neuroblastoma cells; experiment: Dose-response cell viability screening, MTT reduction assay; format: cell-based; conditions: for highest non-toxic concentration (selected concentration): SH-SY5Y cells exposed for 25 h
Procedure: as §1, §2
Figure 10 Dose-response screening of compounds 1, 2, 4 and 5 on SH-SY5Y neuronal cell line. Overnight cultures were treated with a range of concentrations from 10 μM to 100 μM for 24 h and cellular viability was determined by employing the MTT reduction assay.

[10] = tested on: SH-SY5Y human neuroblastoma cells; experiment: Neuroprotection against ferrous sulfate/L-ascorbic acid insult, MTT; format: cell-based; conditions: Fe/Asc 24 h; 1 h pre-incubation; compound 5 20 µM
Procedure: SH-SY5Y human neuroblastoma cells (ATCC-CRL-2266) were seeded in DMEM/F12 (Dulbecco’s Modified Eagle Medium/Ham’s F-12 Nutrient Mixture; Thermo Fisher Scientific) with 10% heat inactivated fetal bovine serum, 50 U/mL penicillin and 50 U/mL streptomycin under a humidified atmosphere with 95% relative humidity at 37 °C at a 0.16 × 10^6 cells/mL density. Stock solutions from tested compounds (1, 2, 4 and 5) were prepared in DMSO at a 25 mM concentration and stored at −20 °C until needed. In order to select the highest non-toxic concentration, a dose-response screening was performed, where SH-SY5Y cells were exposed to the compounds for 25 h. The selected concentrations for each compound were: 75 µM final concentration for 1 and 2; 10 µM final concentration for 4 and 20 µM final concentration for 5. […]
Cell viability was measured by using the MTT (3-(4,5-dimethylthiazol-2-yl)-2,5-diphenyl tetrazolium bromide) reduction assay. […] Formazan precipitates were then dissolved in DMSO and absorbance measured at 570 nm. The ability to reduce MTT was expressed as a percentage of untreated control cells.
Figure 12 Neuroprotective effect of compounds after Ferrous Sulfate (Fe)/L-Ascorbic Acid (AscH(-)) insult. […] Cellular viability was determined by employing the MTT reduction assay. […]

[11] = Aβ1-42, inhibitor 40 µM, SEM < 10%
[12] = AChE from electric eel, read-out: eeAChEi IC50

Sequence of AChE of electroforus electricus (electric eel) (O42275 24-633): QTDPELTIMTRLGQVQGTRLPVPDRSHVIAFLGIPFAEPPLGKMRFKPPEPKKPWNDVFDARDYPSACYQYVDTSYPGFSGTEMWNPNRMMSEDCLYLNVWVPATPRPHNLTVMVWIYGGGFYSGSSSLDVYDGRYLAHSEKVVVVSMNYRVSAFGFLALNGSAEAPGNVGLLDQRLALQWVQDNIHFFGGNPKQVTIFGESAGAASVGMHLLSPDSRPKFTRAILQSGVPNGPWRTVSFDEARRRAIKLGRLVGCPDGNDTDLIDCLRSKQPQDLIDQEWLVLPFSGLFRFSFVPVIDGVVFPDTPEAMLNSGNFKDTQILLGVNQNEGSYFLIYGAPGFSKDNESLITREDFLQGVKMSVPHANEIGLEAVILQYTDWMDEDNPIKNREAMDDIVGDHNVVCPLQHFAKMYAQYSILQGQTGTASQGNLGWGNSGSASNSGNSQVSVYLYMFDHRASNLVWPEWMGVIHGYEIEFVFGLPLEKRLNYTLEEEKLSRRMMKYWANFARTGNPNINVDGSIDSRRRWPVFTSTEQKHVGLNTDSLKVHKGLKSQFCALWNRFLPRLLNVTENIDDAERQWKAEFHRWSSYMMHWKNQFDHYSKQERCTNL
T1 sequence (P05067 672-713 limits assumed): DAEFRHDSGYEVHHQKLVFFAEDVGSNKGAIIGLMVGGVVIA

Row | SMILES | inhibition at 40 µM [4, 11] [%] | IC50 [3, 12] [µM] | Antioxidant Activity EC50 [7] | protection against Aβ1-42-induced toxicity [8] | Inhib. Aβ Aggreg. Self-Induced [4, 11] [%] | highest non-toxic concentration (selected concentration) [9] [µM] | further results
1 | CC[C@H](C)[C@@H]1NC(=O)C(C(C)=O)=C1O (stereo in doubt) [Tenuazonic acid] | 25.2 |  |  |  |  |  | log K (protonation constant) [1]: 3.523; Antioxidant Activity EC50 [2]: - 2.6 ± 0.2 [19] µmol/µmol of DPPH; IC50 ([3]; eeAChEi IC50, AChE from electric eel): 65 ± 4 µM; Inhib. Aβ Aggreg. Self-Induced [5]: 50 ± 8%; Inhib. Aβ Aggreg. Cu2+-Induced [6]: did not demonstrate a significant difference of effect
2 | CCOC(=O)C1=C(O)C(C)NC1=O (stereo not shown) [Compound 3, Ethyl 4-hydroxy-5-methyl-2-oxo-2,5-dihydro-1H-pyrrole-3-carboxylate] | 57.4 | 44 ± 4 | >30 µmol/µmol of DPPH |  |  |  | inhibition at 40 µM ([6]; read-out: Inhib. Aβ Aggreg. Cu2+-Induced): 63.8%
3 | O=C1C=C(NCCN2CCN(Cc3ccccc3)CC2)C(Cc2ccccc2)N1 (stereo not shown) [Compound 4, 5-Benzyl-4-((2-(4-benzylpiperazin-1-yl)ethyl)amino)-1,5-di-hydro-2H-pyrrol-2-one] | 72 to 78.4 | 16 ± 2 | >30 µmol/µmol of DPPH | do not confer protection | 72.0 | 10 | 
4 | CC(C)C1NC(=O)C=C1NCCN1CCN(Cc2ccccc2)CC1 (stereo not shown) [Compound 5, 4-((2-(4-Benzylpiperazin-1-yl)ethyl)amino)-5-isopropyl-1,5-dihydro-2H-pyrrol-2-one] | 72 to 78.4 | 24 ± 3 | >30 µmol/µmol of DPPH | do not confer protection; also recorded: not able to directly protect SH-SY5Y cells from Aβ1-42-induced cell toxicity | 78.4 | 20 | cytotoxicity on SH-SY5Y cell line ([9]; 10 μM to 100 μM, 24 h, at the active concentrations): non-cytotoxic; also recorded: do not show (except for compound 4) cytotoxicity; neuroprotection against Fe/Asc challenge [10]: conferred neuroprotection against the Fe/Asc challenge
5 | Nc1c2c(nc3ccccc13)CCCC2 [Tacrine, reference compound] |  |  |  |  |  |  | inhibition at 40 µM [4]: 31.2%
